Laboratory results as given in patent US5792742A, “Fibrin-binding peptide fragments of fibronectin” (New York University, priority 1994, dated 1998).

Columns and labels:
[1] = previously shown (Baron et al. 1990); cited from earlier work
[2] = Heparin affinity chromatography; format: binding; details: NaCl gradient in 0.05M tris buffer, pH 8.0
Source text: Upon warming the column to room temperature, a 25.9 kDa fragment was eluted with FBB (Peak a, FIG. 3). […] 1.0M NaCl in 0.05M tris buffer, pH 8.0. The yield of the 11 kDa fragment from the intact molecule was approximately 5% (w/w). This is the same as the theoretical yield. The extinction coefficient has been determined to be approximately 4.5, based on a comparison between A280 and protein concentration determination by Coomassie Protein Assay (Pierce Chemical Co.).

fibrin [3] = test: Fibrin-SEPHAROSE affinity chromatography (binding and elution); parameters: species or system bovine
Description: Bovine fibrinogen was cross-linked to CNBr-activated SEPHAROSE™ (5 mg/ml beads) according to the manufacturer's instructions. Coupled fibrinogen was subsequently converted to fibrin by incubation with human thrombin to a final concentration of 5 NIH units/ml and 100 K.I. (kallikrein inhibitory) units/ml of aprotinin (in 0.05M Tris-HCI buffer, pH 7.6, containing 0.1M NaCl and 0.01M EDTA) for three hours, at room temperature (Gold, et al. (1983) Biochemistry 22, 4113-4119).
1.0M NaCl in 0.05M tris buffer, pH 8.0.
The fibrin-binding activity of the proteolytically derived 25.9 kDa fragment of Fn was determined by its ability to bind to a fibrin affinity matrix. […] FBB was used to equilibrate and wash the column. Following warming of the column to 22° C., the column was washed with FBB until absorbance at 280 nm (A280) was less than 0.01, and bound protein eluted with 0.05M Tris-HCl, 0.5M NaCl, 6M urea buffer, pH 7.6.
The module (500 μg/1.0 ml) was incubated for 4 hours (while rotating) at 4° C. in the presence of 1.0 ml fibrin-SEPHAROSE™ (5 mg fibrin/ml SEPHAROSE™ beads) equilibrated in […] Tris-HCl, 0.1M NaCl buffer, pH 7.6.
The 11 KDa peptide (50 μg/0.206 ml) was radiolabeled using the IODO-BEAD method (Pierce Chemical). The peptide was added to one IODO-BEAD in the presence of 100 μCi ^125 I (17.4 Ci/mg, New England Nuclear) and incubated on ice for 10 minutes. The bead was removed and the free ^125 I removed by chromatography through a PD10 column containing SEPHADEX™ G-25 (Pharmacia). […] The radioiodinated 11 kDa fibrin-binding peptide (500 μg/1.5 ml) was combined with 1 ml of fibrin-SEPHAROSE™ (5 mg fibrin/ml beads) equilibrated with 50 mM Tris-HCl, 0.1M NaCl buffer, pH 7.6, and rotated for 4 hours, at 4° C. The mixture was poured onto a disposable column (0.6 cm×8.0) and the unbound protein washed through. The column was equilibrated to room temperature and washed with the equilibration buffer.

fibrin [4] = tested on: fibrin
Description: Since the anti-Fn detection system described for the ELISA above could not be used in Fn competition assays employing the intact Fn molecule or the 25.8 kDa proteolytic fragment, purified Fn was biotinylated using water soluble NHS-LC-Biotin (Pierce Chemm. Co.; according to the manufacturer's instructions) and binding to fibrin detected by alkaline phosphatase conjugated streptavidin (diluted 1/500 in FBBT/BSA) for 1 hour at 22° C., followed by the addition of p-nitrophenyl phosphate, as described above. To ensure that the biotinylation of the Fn had not affected its ability to bind to fibrin, fibrin-binding activity was tested by incubating increasing concentrations of biotinylated Fn (10-300 ng/0.1 ml FBB) with the fibrin-coated wells (200 ng) and detected (see FIG. 28A) using alkaline phosphatase-conjugated streptavidin and the reaction developed as described for Direct Elisa.
To compare the relative fibrin-binding affinities of the ^4 F1.^5 F1 recombinant module pair and the 25.9 kDa proteolytic fragment (^1 F1-^5 F1) with that of the native Fn molecule, these purified proteins were competed with biotinylated plasma Fn for binding to fibrin coated wells and the extent of inhibition of binding assessed by incubation with alkaline phosphatase-conjugated streptavidin. […] Biotinylated Fn (100 ng/0.1 ml FBB: 2.3 nM) was combined with increasing concentrations (0-10 μM) of either unlabeled Fn, the 25.9 kDa proteolytic fragment, or the separate ^4 F1.^5 F1, and ^10 F1 recombinant modules and incubated with the fibrin-coated microtiter wells for 1 hour at 22° C. […] Bound biotinylated Fn was quantitated as described above.

## 25.9 kDa fragment: 25.9 kDa N-terminal proteolytic fibrin-binding fragment of fibronectin (^1 F1-^5 F1), residues 17-246 of SEQ ID NO:1
[1]
  heparin-binding activity, affinity: intermediate
[2]
  NaCl concentration at elution from heparin affinity chromatography: 0.25 M
Fibrin [3]; FBB buffer
  % of protein applied eluted on warming the column to 22° C. (room temperature): approximately 8%
Fibrin [3]; after warming to 22° C.
  % of protein applied eluted with 0.5M NaCl, 6.0M urea buffer: approximately 17%
Fibrin [3]; binding at 4° C., 500 μg applied
  % of protein applied retained by fibrin-SEPHAROSE: 25%
Fibrin [3]; increasing amounts applied to a fixed volume of fibrin-Sepharose
  % of protein applied retained by fibrin-Sepharose with increasing amounts applied: 25%
Fibrin [3]; temperature change vs denaturing conditions (6M urea or 50% ethylene glycol) for elution
  relative affinity for fibrin (from elution conditions): lower affinity
Fibrin [4]
  fold higher concentration over intact Fn needed for 50% inhibition: 7.5 fold
Fibrin [4]; 10 μM of protein (5,000 molar excess)
  maximal inhibition of biotinylated Fn binding to fibrin: 75%
Fibrin [4]; read-out: IC50, 50% inhibition of binding of biotinylated Fn to fibrin, biotinylated Fn 2.3 nM, 200 ng fibrin, 1 hour 22° C.
  IC50: 150 nM
Fibrin [4]; read-out: KI estimated from IC50 (Cheng and Prussoff)
  Ki: 145 nM
